Test results as given in US20210179591A1, “NEW COMPOUNDS FOR USE AS A THERAPEUTICALLY ACTIVE SUBSTANCE AND IN PARTICULAR FOR USE IN THE TREATMENT OF TUMORS” (ETH ZURICH, priority 2017, published 2021).
Read-outs that look alike come from different tables or passages of the source.

What was measured:
GST-DYRK1B = target: T1, GST-DYRK1B (Homo sapiens, UniProt Q9Y463); experiment: IC50 determination of DYRK1B inhibitors (ADP-Glo in vitro kinase assay with DYRKtide); type: biochemical; conditions: ATP 100 μM
T1 construct: purchased ThermoFisher
Protocol: In a preferred embodiment, the compounds of the present invention show inhibition of DYRK1B and/or DYRK1A to a higher extent than expected by the skilled person. The inhibition may be expressed as IC50, i.e. the concentration necessary to inhibit activity to 50%. […] The IC50 value may be determined using methods such as those described in the examples. As such, a suitable method comprises the steps of incubating GST-DYRK1B (e.g. at 5 nM) and DYRKtide (e.g. at 50 μM) in kinase buffer, following compound dispensing (e.g. 1 μl), e.g. 2 μl of ATP (final concentration e.g. 100 μM) and incubating, preferably at room temperature. After that, a detectable compound such as ADP-Glo™ reagent can be dispensed and incubated, preferably at room temperature. Finally, Kinase Detection Reagent can be dispensed and the solution be incubated before measuring.
Compounds of formula 16, 12, 14, 10 and 19 inhibited DYRK1B (SEQ. ID. NO. 1) kinase activity with an IC50 of 2 μM, 2 μM, 3 μM, 4 μM and 3 μM respectively. Titration curves show average of n=3 independent experiments, average±SD.
GST-DYRK1B (5 nM) and DYRKtide (50 μM) (Lucerna-Chem AG, D96-58) diluted in kinase buffer were dispensed in white 384 well plate (3572, Corning, N.Y., USA) (2 μl/well). Following compound dispensing (1 μl), 2 μl of ATP (final concentration 100 μM) was added and incubated for 30 min at room temperature. After that, 5 μl of ADP-Glo™ reagent was dispensed and incubated for 40 min at room temperature. Finally, 10 ul of Kinase Detection Reagent was dispensed and incubated for 30 min before measuring the plate on a Tecan infinite M1000pro plate reader (Luminescence mode).

HT29 cells = experiment: Immunoblot of p27 Ser10 phosphorylation in HT29 cells cultured in hypoxia; type: cell-based; conditions: FIG. 5b
Protocol: (§1) Cells were lysed in lysis buffer (50 mM Tris-HCl pH 7.5, 250 mM NaCl, 0.5% NP-40, 5 mM NaCl, 5 mM NaF, 5 mM EDTA, 0.5 mM EGTA). Protein were separated in 10% SDS/PAGE gels, as previously described. Ser^10-p27 (sc-12939-R) (1:500) and DYRK1B (sc-390417) (1:200) antibodies were purchased from Santa-Cruz, γ-TUBULIN (ab11316) (1:5000) from Abcam, p27 (610242) (1:500) from BD Biosciences and V5 (R960-25) from Life Technology.

[1] = tested on: HT29-HRE MTS (hypoxic cancer cells); experiment: Compound treatment of multicellular tumor spheroids (MTS), SYTOX cell death in the hypoxic core; type: cell-based; conditions: FIGS. 4a to 4e
Protocol: DMSO was used as negative control, AZ191 as positive control and staurosporine (STS) as a general cytotoxic control. Whole MTS was visualized by Hoechst staining and cell death by SYTOX staining. Scale bar 200 μm. […] Average±SD of n>10 MTS from 3 biological replicates are shown. […] After 72h hours in culture, 10 μl of a mix of SYTOX Orange (S11368) (1:1000) and Hoechst 33258 (1 μM) diluted in DMEM was added to each well of the ULA plate and incubated overnight before image acquisition. MTS were imaged with a 5× objective on Zeiss observer Z.1 microscope equipped with an automated stage, with Hoechst channel used for autofocusing. For each well, images of Hoechst, YFP and SYTOX channels were acquired in the middle of the MTS. Images were analyzed with a custom ImageJ script. Briefly, Hoechst channel images were used to generate a mask of the MTS, which was then scaled to 1:3 and transferred to the SYTOX channel to measure the pixel intensity in the core area of the MTS. HT29-HRE solution (20,000 cells/ml) was dispensed in ULA plates (250 μl/well) and spun at 700 g for 5 min. After 48 h, MTS were treated with 10 μl of serial dilutions of AZ191, compound of formula 10 DMSO or STS. The next day a mix of Hoechst and SYTOX was added to the wells. MTS were then processed as described above.

DYRK1B = target: T2, DYRK1B (Homo sapiens, UniProt Q9Y463); experiment: In vitro kinase assay, immunoblot of p27 Ser10 phosphorylation by recombinant DYRK1B; type: biochemical; conditions: recombinant DYRK1B and p27, 100 μM ATP, FIG. 5a
T2 construct: purchased ThermoFisher
Protocol: as §1
28 ng of GST-DYRK1B (ThermoFisher, NP_004705) and 100 ng of GST-p27 were mixed in 45 μl of kinase buffer (50 mM HEPES (pH 7.5), 1 mM DTT, MgCl2, 0.004% Triton X-100). Serial dilution of AZ191, compound of formula 10 or DMSO were added to the mix and incubated for 5 min at room temperature. 100 μM of ATP was added to start the kinase reaction which was carried out with constant shaking at 30° C. for 30 min. The reaction was terminated by addition of Laemmli buffer and boiled 5 min at 95° C. Finally, the proteins were separated by SDS page and detected by immunoblotting.

[2] = IC50 values for selected examples, GST-DYRK1B 5 nM, DYRKtide 50 μM, read-out: IC50
[3] = average of n=3 independent experiments, read-out: IC50 of DYRK1B kinase activity inhibition (ADP-Glo titration curve)

T1 sequence (Q9Y463 whole entry): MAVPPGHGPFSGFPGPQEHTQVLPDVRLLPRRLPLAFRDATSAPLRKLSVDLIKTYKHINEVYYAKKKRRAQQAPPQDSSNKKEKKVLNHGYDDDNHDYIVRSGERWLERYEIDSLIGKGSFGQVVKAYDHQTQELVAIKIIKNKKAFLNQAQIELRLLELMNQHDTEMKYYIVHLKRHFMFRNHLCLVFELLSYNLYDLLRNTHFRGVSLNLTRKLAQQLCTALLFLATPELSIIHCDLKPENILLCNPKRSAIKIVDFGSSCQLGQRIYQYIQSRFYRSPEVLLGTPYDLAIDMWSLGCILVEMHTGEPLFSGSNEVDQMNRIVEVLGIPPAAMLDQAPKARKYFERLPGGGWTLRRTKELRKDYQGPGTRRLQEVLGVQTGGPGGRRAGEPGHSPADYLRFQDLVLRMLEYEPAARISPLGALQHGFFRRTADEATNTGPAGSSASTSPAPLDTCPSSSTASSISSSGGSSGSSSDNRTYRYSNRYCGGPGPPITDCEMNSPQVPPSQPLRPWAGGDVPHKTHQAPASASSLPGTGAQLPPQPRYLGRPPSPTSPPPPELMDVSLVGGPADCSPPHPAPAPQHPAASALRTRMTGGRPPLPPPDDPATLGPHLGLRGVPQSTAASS
T2 sequence (Q9Y463 whole entry): as above

Cc1cccnc1CNc1nccc(-c2cnn(-c3ccccc3F)c2)n1 [4-[1-(2-fluorophenyl)-1H-pyrazol-4-yl]-N-[(3-methyl-2-pyridinyl)methyl]-2-pyrimidinamine]
IC50 (GST-DYRK1B; [2]): 3.52 µM

COc1ccccc1-n1cc(-c2ccnc(NCc3cnc(C)cn3)n2)cn1 [4-[1-(2-methoxyphenyl)-1H-pyrazol-4-yl]-N-[(5-methyl-2-pyrazinyl)methyl]-2-pyrimidinamine]
IC50 (GST-DYRK1B; [2]): 10.3 µM

OCCCCCNc1nccc(-c2cnn(-c3ccccc3F)c2)n1 [5-({4-[1-(2-fluorophenyl)-1H-pyrazol-4-yl]pyrimidin-2-yl}amino)pentan-1-ol]
IC50 (GST-DYRK1B; [2]): 2 µM

Fc1ccccc1-n1cc(-c2ccnc(NCC(F)F)n2)cn1 [N-(2,2-difluoroethyl)-4-[1-(2-fluorophenyl)-1H-pyrazol-4-yl]pyrimidin-2-amine]
IC50 (GST-DYRK1B; [2]): 6.98 µM

NCCCCCNc1nccc(-c2cnn(-c3ccccc3F)c2)n1 [N-{4-[1-(2-fluorophenyl)-1H-pyrazol-4-yl]pyrimidin-2-yl}pentane-1,5-diamine]
IC50 (GST-DYRK1B; [2]): 3.97 µM

NCCCCCNc1nccc(-c2cnn(-c3ccc(F)cc3)c2)n1 [N-{4-[1-(4-fluorophenyl)-1H-pyrazol-4-yl]pyrimidin-2-yl}pentane-1,5-diamine, reference compound]
IC50 (GST-DYRK1B; [2]): 15.6 µM

Fc1ccccc1-n1cc(-c2ccnc(NCc3ccncc3)n2)cn1 [compound of formula 10, 4-(1-(2-fluorophenyl)-1H-pyrazole-4-yl)-N-(pyridine-4-ylmethyl)pyrimidine-2-amine]
inhibition of phosphorylation of p27 at serine 10 in cells (HT29 cells): inhibited the phosphorylation of DYRK1B substrate p27 at serine 10
activity against hypoxic cancer cells [1]: high activity
inhibition of phosphorylation of DYRK1B substrate p27 at serine 10 (DYRK1B): inhibited the phosphorylation of DYRK1B substrate p27 at serine 10
IC50 (GST-DYRK1B; [3]): 4 µM

Fc1ccccc1-n1cc(-c2ccnc(NC3CCOCC3)n2)cn1 [compound of formula 12]
IC50 (GST-DYRK1B; [3]): 2 µM

CCNc1nccc(-c2cnn(-c3ccccc3F)c2)n1 [compound of formula 14]
IC50 (GST-DYRK1B; [3]): 3 µM

CC(Cc1ccncc1)Nc1nccc(-c2cnn(-c3ccccc3F)c2)n1 (centres unmarked) [compound of formula 16]
IC50 (GST-DYRK1B; [3]): 2 µM

COc1ccccc1-n1cc(-c2ccnc(NCc3c(C)n[nH]c3C)n2)cn1 [compound of formula 19]
IC50 (GST-DYRK1B; [3]): 3 µM
